Reference: patent US20260069539A1, “LIPIDOID COMPOUNDS AND RELATED COMPOSITIONS AND USES” (Poseida Therapeutics, Inc., priority 2023, published 2026)

Key:
[1] = Body weight change / body weight loss 24 hours post-administration of LNP; assay type: in vivo, BALB/C mice
Protocol: In addition, the body weight of mice treated with LNP compositions of the present disclosure prepared as described in Example 77 was assessed prior to intravenous administration and 24 hours post-administration and the body weights at baseline and post-treatment were compared.
In addition, the body weight of mice treated with LNP compositions of the present disclosure was assessed prior to intravenous administration and 24 hours post-administration and the body weights at baseline and post-treatment were compared.
Body weight loss (BWL) measurements were taken at 24 hrs post administration and luciferase expression was measured by whole body luminescence imaging (BLI) at 48 hours post-administration.
(§1) Blood was drawn from control and treated mice 4 hrs post-administration for cytokine analysis, body weight loss (BWL) measurements were taken at 24 hrs post administration and luciferase expression was measured by whole body luminescence imaging (BLI) at 48 hours post-administration.

liver cells [2] = assay: In vivo LNP delivery of fLuciferase mRNA, bioluminescent imaging (BLI) at 4 hr; parameters: species or system BALB/C mice; conditions: for Mean Luciferase Flux: 0.5 mg/kg fLuc mRNA i.v., 4 hr
Protocol: Adult female BALB/C mice (n=3/group) were intravenously administered 0.5 mg/kg of 5′-CleanCap—fLuciferase mRNA (TriLink Biotech) formulated with the LNP compositions shown in Table 6. One group of mice was treated with vehicle (PBS, Thermo Fisher Scientific, USA) as a negative control.
(§2) The location and extent of luciferase expression in treated and control mice were determined at 4 hr for mRNA and 48 hr for DNA by bioluminescent imaging (BLI) of anesthetized mice using an IVIS Lumina in vivo imaging system (Perkin Elmer) according to the manufacturer's instructions. Briefly, mice were anesthetized using isoflurane in oxygen, and placed supine on a heated stage. Mice were then administered D-luciferin (Perkin-Elmer #122799) IP, and BLI was performed.
as §2, with “hr” for “hr for mRNA and 48 hr for DNA”
as §2, with “hr” for “hr for mRNA and 48 hr for DNA”
The location and extent of luciferase expression in treated and control mice were determined at 4 hr by bioluminescent imaging (BLI) of anesthetized mice using an IVIS Lumina in vivo imaging system (Perkin Elmer) according to the manufacturer's instructions.
Briefly, mice were anesthetized using isoflurane in oxygen, and placed supine on a heated stage. Mice were then administered D-luciferin (Perkin-Elmer #122799) IP, and BLI was performed.
as §2, with “hr” for “hr for mRNA and 48 hr for DNA”

liver cells [3] = assay: In vivo LNP delivery of DNA encoding firefly luciferase, bioluminescent imaging (BLI) at 48 hr; parameters: species or system BALB/C mice; conditions: for Total Flux: Example 103, 0.5 mg/kg DNA intravenous, BLI at 48 hr; for Mean Luciferase Flux: DNA encoding firefly luciferase, 48 hr
Protocol: Adult BALB/C mice (n=3) were administered 0.5 mg/kg of DNA encoding firefly luciferase (Nature Technology Corp) formulated in a LNP composition listed in Table 4. One group of mice was treated with vehicle (PBS, Thermo Fisher Scientific, USA) as a negative control.
as §2, with “at” for “at 4 hr for mRNA and”, “DNA delivery” for “DNA”
as §2, with “at” for “at 4 hr for mRNA and”, “performed. […]” for “performed.”
Body weight loss (BWL) measurements were taken at 24 hrs post administration and luciferase expression was measured by whole body luminescence imaging (BLI) at 48 hours post-administration. […]
Luciferase expression was measured by whole body luminescence imaging (BLI) at 48 hours post-administration.

pcsk9 protein = assay: Serum Pcsk9 ELISA 7 days after LNP delivery of Cas-CLOVER mRNA and pcsk9 gRNAs (in vivo gene editing); parameters: species or system mouse; conditions: serum 7 days
Protocol: In two separate experiments, each group of adult female BALB/C mice (n=2/group) was intravenously co-administered mRNA encoding 5′-CleanCap-5MeC-Cas-CLOVER (SEQ ID NO: 5) and a pair of gRNAs (SEQ ID NOs: 6 and 7) targeted to the first exon of the mouse pcsk9 gene.
After seven days post-administration, blood samples were drawn from the subjects. Briefly, 500 μL of blood was collected after euthanasia via cardiac puncture using 2 ml syringes and 25G needles, transferred to microcentrifuge tubes, incubated at room temperature for 1 hour, and centrifuged at 1500 g for 15 minutes to separate the cellular fraction from serum. Serum fraction (200 μL) was transferred to a new tube and stored at −80C until further analysis.
Serum levels of the pcsk9 protein in the mice were measured 7 days after administration. Results are shown in Table 23 for the first experiment and Table 24 for the second experiment. Briefly, a mouse Pcsk9 ELISA kit (Biolegend) was used to determine Pcsk9 in each serum sample following manufacturer's instructions. All serum samples were assayed in triplicate and results were expressed as percentage in Pcsk9 levels compared with Pcsk9 levels of PBS-treated mice.

[4] = tested on: proinflammatory cytokines IL-6, INF-G, TNF-α, MCP-1, MIP-1a/MIP-1b; assay: Serum proinflammatory cytokine levels (ELISA) 4 hours after LNP administration; assay type: in vivo, BALB/C mice; conditions: 0.5 mg/kg fLuc mRNA i.v., serum at 4 hours
Protocol: The levels of five proinflammatory cytokines present in serum were evaluated at 4 hours after LNP administration for each of the tested concentrations. Briefly, serum samples were prepared as described for liver enzyme analysis and the serum concentration of each cytokine was determined using commercially available ELISA kits (e.g., R&D Systems Quantikine ELISA kits). The levels of the proinflammatory cytokines interleukin-6 (IL-6), interferon gamma (INF-G), tumor necrosis factor alpha (TNF-α), monocyte chemoattractant protein-1 (MCP-1), macrophage inflammatory protein-1 alpha (MIP-1a) in mice treated with LNPs of the present disclosure compared to vehicle treated mice at 4 hours are shown in Table 18.
(§3) The levels of five proinflammatory cytokines present in serum were evaluated at 4 hours after LNP administration as described in Example 81. The levels of the proinflammatory cytokines interleukin-6 (IL-6), interferon gamma (INF-G), tumor necrosis factor alpha (TNF-a), monocyte chemoattractant protein-1 (MCP-1), macrophage inflammatory protein-1 beta (MIP-1b) in mice treated with LNPs of the present disclosure are shown in Table 35.
as §3, with “38 and Table 39.” for “35.”
as §3, with “(TNF-α),” for “(TNF-a),”, “44.” for “35.”
as §1

[5] = DNA LNP with 43.17 % moles of the compound
[6] = DNA LNP with 50 % moles of the compound
[7] = Table 14 experiment, LNP with 43.17 % moles of the compound (Lipid:RNA 80)
[8] = Table 14 experiment, LNP with 50 % moles of the compound (Lipid:RNA 80)
[9] = LNP with 43.17 % moles of the compound (DOPC 11.96/Chol 43.17/PEG-DMG 1.7, Lipid:DNA 80)
[10] = LNP with 50 % moles of the compound (DOPC 10/Chol 38.5/PEG-DMG 1.5, Lipid:DNA 80)
[11] = LNP with 40.75 % moles of the compound, fLuc mRNA 0.5 mg/kg i.v.
[12] = LNP with 50 % moles of the compound, fLuc mRNA 0.5 mg/kg i.v.
[13] = Table 15 experiment, LNP with 40.75 % moles of the compound (Lipid:RNA 80)
[14] = Table 15 experiment, LNP with 50 % moles of the compound (Lipid:RNA 80)
[15] = LNP with 40.8 (40.75) % moles Compound No. 40
[16] = LNP with 50 % moles Compound No. 40

Row | Structure (SMILES) | % body weight change [1, 5] [%] | % body weight change [1, 6] [%] | Mean Luciferase Flux (liver cells [2]; [7]) [p/s] | Mean Luciferase Flux (liver cells [2]; [8]) [p/s] | Total Flux (liver cells [3]; LNP with 10% DOPC) [p/s] | Total Flux (liver cells [3]; LNP with 10% DSPC) [p/s] | Mean Luciferase Flux (liver cells [3]; [9]) [p/s] | Mean Luciferase Flux (liver cells [3]; [10]) [p/s] | % body weight change [1, 11] [%] | % body weight change [1, 12] [%] | Mean Luciferase Flux (liver cells [2]; [13]) [p/s] | Mean Luciferase Flux (liver cells [2]; [14]) [p/s] | other results
1 | CCCCC[C@H]1CC[C@H](C(=O)OCC(COC(=O)CCCCCN(CCCO)CCCCCC(=O)COC(COC(=O)[C@H]2CC[C@H](CCCCC)CC2)COC(=O)[C@H]2CC[C@H](CCCCC)CC2)COC(=O)[C@H]2CC[C@H](CCCCC)CC2)CC1 [COMPOUND NO. 37] | −6.0 | −10.7 | 3.49E+11 | 3.55E+11 | 7.64E+07 | 1.58E+08 | 5.80E+07 | 1.28E+08 | – | – | – | – | % Pcsk9 compared to control (pcsk9 protein; DSPC:DOPC molar ratio 5%:5% in LNP, 0.5 mg/kg, lipid:RNA 80:1): 50.4%; % Pcsk9 compared to control (pcsk9 protein; DSPC:DOPC molar ratio 10%:0% in LNP, 0.5 mg/kg, lipid:RNA 80:1): 39.7%; % Pcsk9 compared to control (pcsk9 protein; LNP dose 0.5 mg/kg, COMPOUND NO. 37:DOPC:Cholesterol:DMG-PEG2000 50:10:38.5:1.5, lipid:RNA 80:1): 40.6%; % Pcsk9 compared to control (pcsk9 protein; LNP dose 1.0 mg/kg, COMPOUND NO. 37:DOPC:Cholesterol:DMG-PEG2000 50:10:38.5:1.5, lipid:RNA 80:1): 23.8%
2 | CCCCCC(=O)OCC1CCC(COC(=O)C(CCCN(CCO)CCCC(C(=O)OCC2CCC(COC(=O)CCCCC)CC2)C(=O)OCC2CCC(COC(=O)CCCCC)CC2)C(=O)OCC2CCC(COC(=O)CCCCC)CC2)CC1 (stereo not shown) [COMPOUND NO. 40] | – | – | – | – | – | – | – | – | −5.5 | −2.0 | 2.20E+10 | 1.02E+11 | IL-6 cytokine fold changes in treated mice relative to untreated mice [4, 15]: 0.4 fold; INF-G cytokine fold changes in treated mice relative to untreated mice [4, 15]: 1.5 fold; MCP-1 cytokine fold changes in treated mice relative to untreated mice [4, 15]: 1.6 fold; MIP-1a cytokine fold changes in treated mice relative to untreated mice [4, 15]: 1.4 fold; TNF-a cytokine fold changes in treated mice relative to untreated mice [4, 15]: 1.0 fold; IL-6 cytokine fold changes in treated mice relative to untreated mice [4, 16]: 0.6 fold; INF-G cytokine fold changes in treated mice relative to untreated mice [4, 16]: 2.0 fold; MCP-1 cytokine fold changes in treated mice relative to untreated mice [4, 16]: 5.2 fold; MIP-1a cytokine fold changes in treated mice relative to untreated mice [4, 16]: 3.8 fold; TNF-a cytokine fold changes in treated mice relative to untreated mice [4, 16]: 1.1 fold
3 | CCCCCC(=O)OCC1CCC(COC(=O)C(CCCN(C)CCCC(C(=O)OCC2CCC(COC(=O)CCCCC)CC2)C(=O)OCC2CCC(COC(=O)CCCCC)CC2)C(=O)OCC2CCC(COC(=O)CCCCC)CC2)CC1 (stereo not shown) [COMPOUND NO. 41] | – | – | – | – | – | – | – | – | −1.8 | −2.6 | 3.79E+09 | 5.26E+09 | –
4 | CCCCC[C@H]1CC[C@H](C(=O)OCC(COC(=O)CCCCCN(CCO)CCCCCC(=O)COC(COC(=O)[C@H]2CC[C@H](CCCCC)CC2)COC(=O)[C@H]2CC[C@H](CCCCC)CC2)COC(=O)[C@H]2CC[C@H](CCCCC)CC2)CC1 [COMPOUND NO. 36] | −4.9 | −6.7 | 1.31E+11 | 1.19E+11 | 7.52E+07 | 1.23E+08 | 7.99E+07 | 1.82E+08 | – | – | – | – | RNA delivery potency (liver cells [2]; 0.5 mg/kg fLuciferase mRNA in LNP, BLI at 4 hr): RNA delivery potency increases with increasing number of cyclohexyl-substituted tails; Total Flux (liver cells [2]; Example 104, experiment of Table 64, 0.5 mg/kg fLuciferase mRNA intravenous, BLI at 4 hr): 3.25E+11 p/s
